IC50 data for 38 compounds are collected here from US9115093B2, “Substituted bicyclic dihydropyrimidinones and their use as inhibitors of neutrophil elastase activity” (Boehringer Ingelheim International GmbH, priority 2013, dated 2015).

The experiment addresses T1, neutrophil elastase (Homo sapiens, UniProt P08246).
T1 sequence (P08246 30-247 limits assumed): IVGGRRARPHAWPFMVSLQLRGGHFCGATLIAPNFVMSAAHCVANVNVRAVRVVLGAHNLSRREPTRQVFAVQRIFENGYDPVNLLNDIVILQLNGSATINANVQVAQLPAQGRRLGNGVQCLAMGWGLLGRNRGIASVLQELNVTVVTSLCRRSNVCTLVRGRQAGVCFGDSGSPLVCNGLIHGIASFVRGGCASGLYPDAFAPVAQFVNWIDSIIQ
Nature of the experiment: Human Neutrophil Elastase Assay. More on the design: purchased Calbiochem 324681. In kind it is biochemical. As to conditions: substrate MeOSuc-Ala-Ala-Pro-Val-AMC, pH 7.5, room temperature. In outline:
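Readout: AMC fluorescence (ex 380, em 460 nm) after 60 min room-temperature reaction with 250 nM MeOSuc-AAPV-AMC, following 15 min compound–enzyme preincubation. Buffer: Tris/NaCl pH 7.5, 0.01% BSA.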
The compound `CCNC(=O)N1C(=O)N(c2cccc(C(F)F)c2)C2=C(C(=O)CCC2)C1c1ccc(C#N)cc1S(C)(=O)=O` (centres unmarked) [Example 51, 4-(4-Cyano-2-(methylsulfonyl)phenyl)-1-(3-(difluoromethyl)phenyl)-N-ethyl-2,5-dioxo-1,2,5,6,7,8-hexahydroquinazoline-3(4H)-carboxamide] came in with an IC50 of less than 1 nM.

Compound `N#Cc1ccc(C2NC(=O)N(c3cccc(C(F)(F)F)c3)C3=C2C(=O)CCC3)c(F)c1` (centres unmarked) [Example 52, 4-(2,5-Dioxo-1-(3-(trifluoromethyl)phenyl)-1,2,3,4,5,6,7,8-octahydroquinazolin-4-yl)-3-fluorobenzonitrile] registered an IC50 of 26.7 nM.

In turn, `N#Cc1ccc(C2NC(=O)N(c3ccc(F)c(C(F)(F)F)c3)C3=C2C(=O)CCC3)cc1` (centres unmarked) [Example 52.1] came in with a half-maximal inhibitory concentration (IC50) of 19.3 nM.

Take `N#Cc1ccc(C2NC(=O)N(c3cc(F)cc(C(F)(F)F)c3)C3=C2C(=O)CCC3)cc1` (centres unmarked) [Example 52.2]: the IC50 was 13.8 nM.

The compound `COc1cc(C#N)ccc1C1NC(=O)N(c2cccc(C(F)(F)F)c2)C2=C1C(=O)CCC2` (centres unmarked) [Example 53, 4-(2,5-Dioxo-1-(3-(trifluoromethyl)phenyl)-1,2,3,4,5,6,7,8-octahydroquinazolin-4-yl)-3-methoxybenzonitrile] showed an IC50 of 34 nM.

For the compound `CCS(=O)(=O)c1cc(C#N)ccc1C1NC(=O)N(c2cccc(C(F)(F)F)c2)C2=C1C(=O)CCC2` (centres unmarked) [Example 54, 4-(2,5-Dioxo-1-(3-(trifluoromethyl)phenyl)-1,2,3,4,5,6,7,8-octahydroquinazolin-4-yl)-3-(ethylsulfonyl)benzonitrile], the IC50 is 7.5 nM.

Regarding `Cc1cc(C#N)ccc1C1NC(=O)N(c2cccc(C(F)(F)F)c2)C2=C1C(=O)CCC2` (centres unmarked) [Example 55, 4-(2,5-Dioxo-1-(3-(trifluoromethyl)phenyl)-1,2,3,4,5,6,7,8-octahydroquinazolin-4-yl)-3-methylbenzonitrile], the IC50 worked out at 18.7 nM.

`N#Cc1ccc(C2NC(=O)N(c3cccc(C(F)(F)F)c3)C3=C2C(=O)CCC3)c(Cl)c1` (centres unmarked) [Example 56, 3-Chloro-4-(2,5-dioxo-1-(3-(trifluoromethyl)phenyl)-1,2,3,4,5,6,7,8-octahydroquinazolin-4-yl)benzonitrile] registered a half-inhibitory concentration (IC50) of 34 nM. Against the preceding compound, the IC50 is about 1.8-fold higher.

In turn, `CS(=O)(=O)c1cc(C#N)ccc1C1NC(=O)N(c2ccnc(C(F)(F)F)c2)C2=C1C(=O)CCC2` (centres unmarked) [Example 57, 4-(2,5-Dioxo-1-(2-(trifluoromethyl)pyridin-4-yl)-1,2,3,4,5,6,7,8-octahydroquinazolin-4-yl)-3-(methylsulfonyl)benzonitrile] gave a half-inhibitory concentration (IC50) of 73.2 nM.

Consider `CCN1C(=O)N(c2cccc(C(F)(F)F)c2)C2=C(C(=O)CCC2)C1c1ccc(C#N)cc1S(C)(=O)=O` (centres unmarked) [Example 58, 4-(3-Ethyl-2,5-dioxo-1-(3-(trifluoromethyl)phenyl)-1,2,3,4,5,6,7,8-octahydroquinazolin-4-yl)-3-(methylsulfonyl)benzonitrile], for which inhibition was half-maximal at 1.3 nM (IC50). Compared with the last compound, the IC50 is about 56-fold lower.

The compound `CS(=O)(=O)c1cc(C#N)ccc1C1C2=C(CCCC2=O)N(c2cccc(C(F)(F)F)c2)C(=O)N1CC1CCOCC1` (centres unmarked) [Example 58.5] showed a half-inhibitory concentration (IC50) of 1.9 nM.

`CS(=O)(=O)c1cc(C#N)ccc1C1C2=C(CCCC2=O)N(c2cccc(C(F)(F)F)c2)C(=O)N1CCC1CCOCC1` (centres unmarked) [Example 58.6] came in with an IC50 of less than 1 nM.

Regarding `CS(=O)(=O)c1cc(C#N)ccc1[C@@H]1C2=C(CCCC2=O)N(c2cccc(C(F)(F)F)c2)C(=O)N1CC#N` [Example 59, (S)-4-(3-(Cyanomethyl)-2,5-dioxo-1-(3-(trifluoromethyl)phenyl)-1,2,3,4,5,6,7,8-octahydroquinazolin-4-yl)-3-(methylsulfonyl)benzonitrile], the IC50 was 1.8 nM.

With `CCOC(=O)C(F)N1C(=O)N(c2cccc(C(F)(F)F)c2)C2=C(C(=O)CCC2)C1c1ccc(C#N)cc1` (centres unmarked) [Example 60, Ethyl 2-(4-(4-Cyanophenyl)-2,5-dioxo-1-(3-(trifluoromethyl)phenyl)-1,2,5,6,7,8-hexahydroquinazolin-3(4H)-yl)-2-fluoroacetate], inhibition was half-maximal at 21.6 nM (IC50).

For the compound `CC(C(=O)NCCO)N1C(=O)N(c2cccc(C(F)(F)F)c2)C2=C(C(=O)CCC2)C1c1ccc(C#N)cc1` (centres unmarked) [Example 61, 2-(4-(4-Cyanophenyl)-2,5-dioxo-1-(3-(trifluoromethyl)phenyl)-1,2,5,6,7,8-hexahydroquinazolin-3(4H)-yl)-N-(2-hydroxyethyl)propanamide], the half-maximal inhibitory concentration (IC50) was 6.6 nM. This IC50 lies about 3.3-fold lower than the previous one.

`CN(C)C(=O)CN1C(=O)N(c2cccc(C(F)(F)F)c2)C2=C(C(=O)CCC2)C1c1ccc(C#N)cc1S(C)(=O)=O` (centres unmarked) [Example 62, 2-(4-(4-Cyano-2-(methylsulfonyl)phenyl)-2,5-dioxo-1-(3-(trifluoromethyl)phenyl)-1,2,5,6,7,8-hexahydroquinazolin-3(4H)-yl)-N,N-dimethylacetamide] displayed an IC50 of 1.2 nM. This IC50 lies about 5.5-fold lower than the previous one.

For `Cc1cc(C#N)ccc1C1C2=C(CCCC2=O)N(c2cccc(C(F)(F)F)c2)C(=O)N1C` (centres unmarked) [Example 63, 3-Methyl-4-(3-methyl-2,5-dioxo-1-(3-(trifluoromethyl)phenyl)-1,2,3,4,5,6,7,8-octahydroquinazolin-4-yl)benzonitrile], the 50% inhibitory concentration (IC50) is 7.9 nM.

In the case of `CN1C(=O)N(c2ccnc(C(F)(F)F)c2)C2=C(C(=O)CCC2)C1c1ccc(C#N)cc1` (centres unmarked) [Example 65, 4-(3-Methyl-2,5-dioxo-1-(2-(trifluoromethyl)pyridin-4-yl)-1,2,3,4,5,6,7,8-octahydroquinazolin-4-yl)benzonitrile], the IC50 turned out to be 22.6 nM. This IC50 is about 2.9-fold higher than that of the compound before.

In the case of `Cc1cc(C#N)ccc1C1C2=C(CCCC2=O)N(c2cccc(C(F)(F)F)c2)C(=O)N1S(C)(=O)=O` (centres unmarked) [Example 66, 3-Methyl-4-(3-(methylsulfonyl)-2,5-dioxo-1-(3-(trifluoromethyl)phenyl)-1,2,3,4,5,6,7,8-octahydroquinazolin-4-yl)benzonitrile], inhibition was half-maximal at 2 nM (IC50).

`CS(=O)(=O)N1C(=O)N(c2cccc(C(F)(F)F)c2)C2=C(C(=O)CCC2)C1c1ccc(C#N)cc1Cl` (centres unmarked) [Example 67, 3-Chloro-4-(3-(methylsulfonyl)-2,5-dioxo-1-(3-(trifluoromethyl)phenyl)-1,2,3,4,5,6,7,8-octahydroquinazolin-4-yl)benzonitrile] showed an IC50 of 6.7 nM.

Regarding `CS(=O)(=O)N1C(=O)N(c2ccnc(C(F)(F)F)c2)C2=C(C(=O)CCC2)C1c1ccc(C#N)cc1` (centres unmarked) [Example 69, 4-(3-(Methylsulfonyl)-2,5-dioxo-1-(2-(trifluoromethyl)pyridin-4-yl)-1,2,3,4,5,6,7,8-octahydroquinazolin-4-yl)benzonitrile], it took 23.8 nM to reach half-maximal inhibition (IC50).

Compound `N#Cc1ccc(C2C3=C(CCCC3=O)N(c3cccc(C(F)(F)F)c3)C(=O)N2C(N)=O)cc1` (centres unmarked) [Example 70, 4-(4-Cyanophenyl)-2,5-dioxo-1-(3-(trifluoromethyl)phenyl)-1,2,5,6,7,8-hexahydroquinazoline-3(4H)-carboxamide] displayed an IC50 of 6 nM.

The compound `CCNC(=O)N1C(=O)N(c2cccc(C(F)(F)F)c2)C2=C(C(=O)CCC2)C1c1ccc(C#N)cc1` (centres unmarked) [Example 70.1] had a half-inhibitory concentration (IC50) of less than 1 nM.

On to `N#CCNC(=O)N1C(=O)N(c2cccc(C(F)(F)F)c2)C2=C(C(=O)CCC2)C1c1ccc(C#N)cc1` (centres unmarked) [Example 70.2], for which the IC50 is less than 1 nM.

`N#Cc1ccc(C2C3=C(CCCC3=O)N(c3cccc(C(F)(F)F)c3)C(=O)N2C(=O)NC2CC2)cc1` (centres unmarked) [Example 70.3] displayed a 50% inhibitory concentration (IC50) of less than 1 nM.

In the case of `CC(C)NC(=O)N1C(=O)N(c2cccc(C(F)(F)F)c2)C2=C(C(=O)CCC2)C1c1ccc(C#N)cc1` (centres unmarked) [Example 70.4], inhibition was half-maximal at 1.4 nM (IC50).

For `N#Cc1ccc(C2C3=C(CCCC3=O)N(c3cccc(C(F)(F)F)c3)C(=O)N2C(=O)NCC2CC2)cc1` (centres unmarked) [Example 70.5], the IC50 came to 1.4 nM.

As to `N#Cc1ccc(C2C3=C(CCCC3=O)N(c3cccc(C(F)(F)F)c3)C(=O)N2C(=O)NCC(F)F)cc1` (centres unmarked) [Example 70.6], the IC50 is less than 1 nM.

Regarding `N#Cc1ccc(C2C3=C(CCCC3=O)N(c3cccc(C(F)(F)F)c3)C(=O)N2C(=O)NCC2(O)CC2)cc1` (centres unmarked) [Example 70.7], the midpoint of inhibition, the IC50, lay at 1.4 nM.

`N#Cc1ccc(C2C3=C(CCCC3=O)N(c3cccc(C(F)(F)F)c3)C(=O)N2C(=O)NC2CCOC2)cc1` (centres unmarked) [Example 70.8] showed a 50% inhibitory concentration (IC50) of less than 1 nM.

`CC(C)(CO)NC(=O)N1C(=O)N(c2cccc(C(F)(F)F)c2)C2=C(C(=O)CCC2)C1c1ccc(C#N)cc1` (centres unmarked) [Example 70.10] returned an IC50 of 2.4 nM.

With `N#Cc1ccc(C2C3=C(CCCC3=O)N(c3cccc(C(F)(F)F)c3)C(=O)N2C(=O)NCC2(O)CCC2)cc1` (centres unmarked) [Example 70.13], it took 2.1 nM to reach half-maximal inhibition (IC50).

For the compound `N#Cc1ccc(C2C3=C(CCCC3=O)N(c3cccc(C(F)(F)F)c3)C(=O)N2C(=O)NC2CCOCC2)cc1` (centres unmarked) [Example 70.14], the half-inhibitory concentration (IC50) was less than 1 nM.

For `N#Cc1ccc(C2C3=C(CCCC3=O)N(c3cccc(C(F)(F)F)c3)C(=O)N2C(=O)NCC2CC(O)C2)cc1` (centres unmarked) [Example 70.15], the half-maximal inhibitory concentration (IC50) was less than 1 nM.

In turn, `CC(C)(O)CCNC(=O)N1C(=O)N(c2cccc(C(F)(F)F)c2)C2=C(C(=O)CCC2)C1c1ccc(C#N)cc1` (centres unmarked) [Example 70.16] gave an IC50 of 1.1 nM.

`N#Cc1ccc(C2C3=C(CCCC3=O)N(c3cccc(C(F)(F)F)c3)C(=O)N2C(=O)NC2CS(=O)(=O)C2)cc1` (centres unmarked) [Example 70.18]: the half-inhibitory concentration (IC50) was less than 1 nM.

As for `N#Cc1ccc(C2C3=C(CCCC3=O)N(c3cccc(C(F)(F)F)c3)C(=O)N2C(=O)NC2CCS(=O)(=O)C2)cc1` (centres unmarked) [Example 70.19], the concentration for half-maximal inhibition (IC50) was less than 1 nM.

As for `N#Cc1ccc(C2C3=C(CCCC3=O)N(c3cccc(C(F)(F)F)c3)C(=O)N2C(=O)NC2CCCS(=O)(=O)C2)cc1` (centres unmarked) [Example 70.20], the 50% inhibitory concentration (IC50) was less than 1 nM.
